Measurements as given in patent US20230399360A1, “TERLIPRESSIN-OCTADECANEDIOIC ACID CONJUGATE FOR VASOCONSTRICTIVE THERAPY” (Northwestern University, priority 2019, published 2023).
Bridge positions count the residues as written; N and C are the ends. Peptide text beside a SMILES is read from it. * marks the point of attachment. C18 diacid = O=C(O)CCCCCCCCCCCCCCCCC(=O)*

Key:
V1 receptor = molecular target: T1, V1 receptor (Homo sapiens, UniProt P37288); test: Calcium influx assay (Fluo-4) in primary human aortic smooth muscle cells; format: cell-based; settings: 10^-8 to 10^-4 M, fluorescence over 5 min
T1 construct: Primary human aortic smooth muscle cells (ATCC, PCS-100-012 cell line) were cultured in vascular cell basal medium; host or cells: primary human aortic smooth muscle cells
Method: Primary human aortic smooth muscle cells (ATCC, PCS-100-012 cell line) were cultured in vascular cell basal medium supplemented with rhFGF-basic 5 ng/mL, rh insulin 5 μg/mL, ascorbic acid 50 μg/mL, L-glutamine 10 mM, rh EGF 5 ng/mL, fetal bovine serum 5%.
Calcium influx assays were performed using Fluo-4 direct calcium assay kit (ThermoFisher) on cells between passage numbers 3 to 6. To this end, cells were passaged and plated in a 96-well black tissue culture plate in a concentration of 10,000 cells per well followed by incubation in 37° C. and 5% CO2 for 48 hours. Cells were loaded with the dye and incubated for 1 hr at 37° C. and 5% CO2. Then, terlipressin peptide or terlipressin-ODDA was added to the wells in concentrations ranging from 10^−8 to 10^−4 M, and fluorescence was measured immediately on a Perkin Elmer EnSpire 2300 plate reader. Signal was measured at 530 nm following excitation at 488 nm at 999 time points over a 5 min period.

[1] = Non-invasive tail-cuff systolic blood pressure measurement in mice; format: in vivo, C57BL/6 mice; settings: for increase in systolic blood pressure: C57BL mice, intraperitoneal injection, 0.1 to 10 μg/gr body weight, 20 minutes of measurement, compared with PBS vehicle
[2] = mouse, in vivo
Method: (§1) Blood samples were drawn from the animals (approximately 100 μl) at different time points (1 hr, 3 hr, 6 hr, 24 hr) following the injection. The plasma was separated from the whole blood by centrifugation at 7,000 RPM for 10 minutes and the supernatant was transferred to a new tube. To separate the peptides or peptide conjugates from the plasma proteins, the proteins were denatured using a 7M guanidinium hydrochloride solution mixed 1:1 with the plasma and incubated at room temperature for 15 minutes. Subsequently, to the solution was diluted 10-fold with cold ethanol and the samples were incubated at −20° C. After 1 hour incubation the samples were centrifuged at 10,000 RPM for 10 minutes to precipitate the proteins, and the supernatant was transferred to a new tube. Samples were kept at −80° C. until analyzed.
(§2) 5-20 μl of the ethanol solution were injected to a QTRAP 6500+LC-MS/MS system (SCIEX) for detecting the drug concentration. Mass spectra were obtained and the areas under the curves were evaluated against a calibration curve made formerly.
(§3) Blood pressure measurements were taken for the first 20 minutes following drug injection, and subsequently blood samples were drawn at 1, 3, 6 and 24 hours.

in vivo = settings: mouse
Method: as §1, §2, §3

[3] = human, in vivo; cited from earlier work
[4] = listed as terlipressin conjugate
[5] = mice, systolic blood pressure vs baseline (FIG. 8)

T1 sequence (P37288 whole entry): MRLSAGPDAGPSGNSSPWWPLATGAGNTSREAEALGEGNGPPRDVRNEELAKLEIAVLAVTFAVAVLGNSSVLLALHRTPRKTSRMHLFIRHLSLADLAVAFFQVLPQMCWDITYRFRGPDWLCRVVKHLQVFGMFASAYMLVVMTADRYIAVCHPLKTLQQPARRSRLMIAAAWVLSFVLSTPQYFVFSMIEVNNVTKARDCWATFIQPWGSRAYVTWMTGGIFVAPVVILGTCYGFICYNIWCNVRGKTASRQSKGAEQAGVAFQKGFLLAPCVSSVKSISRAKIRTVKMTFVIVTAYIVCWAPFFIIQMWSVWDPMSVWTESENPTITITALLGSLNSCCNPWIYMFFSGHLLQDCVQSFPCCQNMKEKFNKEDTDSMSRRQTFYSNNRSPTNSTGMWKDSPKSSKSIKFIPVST

| Compound | activation of smooth muscle cells indicated by influx of intracellular calcium (V1 receptor; listed as conjugate) | activation of smooth muscle cells indicated by influx of intracellular calcium (V1 receptor; [4]) | activation of smooth muscle cells indicated by influx of intracellular calcium (V1 receptor; listed as terlipressin conjugates) | increase in systolic blood pressure [1] | increase in systolic blood pressure ([1]; listed as C18 ODDA-terlipressin conjugates) | increase in systolic blood pressure ([1]; listed as ODDA-terlipressin conjugates) | increase in systolic blood pressure [1, 4] | course of systolic blood pressure over time after injection [1, 5] | detection in plasma by LC-MS-MS [2] | half-lifetime in plasma [2] | half-life (in vivo) [min] | time of peak in measured blood pressure following the injection [1, 5] [min] | half life following IV administration [3] |
| --- | --- | --- | --- | --- | --- | --- | --- | --- | --- | --- | --- | --- | --- |
| NCCCCC(NC(=O)C1CCCN1C(=O)C1CSSCC(NC(=O)CNC(=O)CNC(=O)CNC(=O)CCCCCCCCCCCCCCCCC(=O)O)C(=O)NC(Cc2ccc(O)cc2)C(=O)NC(Cc2ccccc2)C(=O)NC(CCC(N)=O)C(=O)NC(CC(N)=O)C(=O)N1)C(=O)NCC(N)=O (stereo not shown) [C18-terlipressin, octadecanedioic acid-terlipressin] ({C18 diacid}-GGGCYFQNCPKG-NH2; disulfide 4-9; configuration not given here) | can stimulate vasocontraction in cultured smooth muscle cells | can stimulate response in cultured smooth muscle cells | can bind to and activate smooth muscle cells | clear increase in pressure | increase the systolic blood pressure | increase the systolic blood pressure | Rise in blood pressure was observed | more stable pressure over time | very sharp and clear peaks | about 1 hour | ~60 |  |  |
| NCCCC[C@H](NC(=O)[C@@H]1CCCN1C(=O)[C@@H]1CSSC[C@H](NC(=O)CNC(=O)CNC(=O)CN)C(=O)N[C@@H](Cc2ccc(O)cc2)C(=O)N[C@@H](Cc2ccccc2)C(=O)N[C@@H](CCC(N)=O)C(=O)N[C@@H](CC(N)=O)C(=O)N1)C(=O)NCC(N)=O [terlipressin, Terlipressin] (H-GGGCYFQNCPKG-NH2; disulfide 4-9) |  |  |  | clear increase in pressure |  |  |  | continuous drop in pressure | no terlipressin was detected at all |  |  | 5 | less than 6 minutes |
